# PubChem BioAssay (NCI)
#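 Values below derive from 48-hour exposures of cells grown in 96-well plates, with endpoints linearly interpolated between the two concentrations bracketing the appropriate inhibition level. GI50 is the concentration that inhibits growth by half. At the TGI there is no net growth.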
# Key:
# Assay in all cases: NCI tumour cell line growth inhibition, 48 h
# HOP-62 NSCLC = system: HOP-62 NSCLC
# U251 CNS = system: U251 CNS
# NCI-H522 lung = system: NCI-H522 lung
# SN12C renal = system: SN12C renal
# SK-MEL-2 melanoma = system: SK-MEL-2 melanoma
# DMS 114 small cell lung = system: DMS 114 small cell lung
# SF-539 CNS = system: SF-539 CNS
# SF-295 CNS = system: SF-295 CNS
# OVCAR-5 ovarian = system: OVCAR-5 ovarian
# T-47D breast = system: T-47D breast
Structure (SMILES),TGI (HOP-62 NSCLC) [µM],TGI (U251 CNS) [µM],TGI (NCI-H522 lung) [µM],TGI (SN12C renal) [µM],TGI (SK-MEL-2 melanoma) [µM],TGI (DMS 114 small cell lung) [µM],TGI (SF-539 CNS) [µM],TGI (SF-295 CNS) [µM],TGI (OVCAR-5 ovarian) [µM],TGI (T-47D breast) [µM],GI50 (DMS 114 small cell lung) [µM]
CCOC(=O)CNC(=O)c1[nH]cnc1/N=N/N(C)C,> 100,> 100,> 100,> 100,> 100,> 100,> 100,> 100,> 100,–,–
C/C(CCN(C)C)=N/O,57,14.6,2.55,27.3,31.5,20.7,1.89,81.5,32.9,–,–
COc1ccc(/C(C=O)=C(\Cl)c2ccc(OC)c(OC)c2)cc1,> 100,> 100,33.5,> 100,> 100,> 100,> 100,> 100,> 100,–,–
NC1CCC2(O)c3ccccc3C2C1 (centres undefined),> 100,> 100,> 100,> 100,> 100,> 100,–,> 100,–,–,–
O=c1[nH]ncc2[nH]c3c(c12)CCc1ccccc1-3,> 100,> 100,57,> 100,57.7,–,42.1,> 100,> 100,98.9,–
Cc1ccc(C(=O)Nc2ccc(CP(=O)(O)O)cc2CP(=O)(O)O)cc1N,> 100,> 100,> 100,> 100,> 100,–,> 100,> 100,> 100,> 100,–
O=c1[nH]c2c(Nc3c4ccccc4nc4ccccc34)c([N+](=O)[O-])c(Nc3c4ccccc4nc4ccccc34)c([N+](=O)[O-])c2[nH]1,20.2,8.35,2.82,8.8,3.93,–,18.6,12.8,5.02,> 39.1,–
C[C@H]1CCC/C=C/[C@@H]2C[C@H](OC3OC(CO)C(O)C(O)C3O)C[C@H]2[C@H](O)/C=C/C(=O)O1 (some centres undefined),> 100,> 100,> 100,> 100,> 100,–,> 100,> 100,> 100,> 100,–
COc1cc(C=O)cc(C=Nc2ccc(Br)cc2)c1O,55.9,> 100,23.5,32.7,17.6,–,7,21.1,> 100,> 100,–
CCC12CCC[C@@]13C=C[C@H](O3)C(C)(C)C2=O (some centres undefined),> 100,> 100,> 100,> 100,> 100,> 100,> 100,> 100,> 100,–,–
O=C(N/N=C/c1ccccc1)c1c(F)c(F)c(F)c(F)c1F,> 100,> 100,49.2,> 100,> 100,–,> 100,> 100,> 100,> 100,–
COc1ccc(S(=O)(=O)NC(CCC(=O)NC(N)=O)C(=O)NC(N)=O)cc1 (centres undefined),> 100,> 100,> 100,> 100,> 100,–,> 100,> 100,> 100,> 100,–
COCc1cc2c(s1)C(=O)C1=C(C2=O)C2(C=C(Br)C(=O)C(Br)=C2)CCN1,–,23.7,7.31,20.4,15.2,3.34,15.5,19.3,29.5,9.2,–
CCOC(=O)C(Cc1ccc(N=NN(C)C)cc1)NC(=O)CC1c2ccccc2-c2ccccc21 (centres undefined),> 100,> 100,> 100,> 100,> 100,> 100,> 100,> 100,> 100,–,–
CC(=O)c1c(-c2ccc(Cl)cc2)c(C#N)c(=S)n(C2OC(CO)C(O)C(O)C2O)c1C (centres undefined),> 100,> 100,> 100,> 100,84.5,–,> 100,> 100,> 100,> 100,–
[C-]#[O+].[Cl][Sn]([Cl])[Cl].[Cl][Sn]([Cl])[Cl].[Pt].c1cnc2c(c1)ccc1cccnc12,45.3,15,> 100,> 61.2,18.6,> 39.4,16.6,> 36.5,> 59.5,–,4.14

Structure (SMILES),TGI (HOP-62 NSCLC) [µM],TGI (U251 CNS) [µM],TGI (NCI-H522 lung) [µM],TGI (SN12C renal) [µM],TGI (SK-MEL-2 melanoma) [µM],TGI (DMS 114 small cell lung) [µM],TGI (SF-539 CNS) [µM],TGI (SF-295 CNS) [µM],TGI (OVCAR-5 ovarian) [µM],TGI (T-47D breast) [µM],GI50 (DMS 114 small cell lung) [µM]
OCCN1CCN(c2nc(N3CCCC3)c3nc(Cl)c(NCc4ccccc4)nc3n2)CC1,8.98,18.2,18.7,24.2,16.8,–,13.6,13.4,26.6,17.4,–
CC(=O)CCC1(C(=O)OCC(C)C)CCCC1=O (centres undefined),> 100,> 100,> 100,> 100,> 100,–,> 100,> 100,> 100,> 100,–
O=C(O)[C@H]1NC[C@H]2C(Br)=NO[C@@H]12,> 100,> 100,> 100,> 100,> 100,–,> 100,> 100,> 100,> 100,–
Cc1n[nH]c(=O)n1-n1cccc1,> 100,> 100,> 100,> 100,> 100,–,> 100,> 100,> 100,> 100,–
CC1CC(c2ccccc2)=Nc2ccccc2S1 (centres undefined),> 100,> 100,> 100,> 100,> 100,> 100,> 100,> 100,> 100,–,–
COc1c(OC2OC(CO)C(O)C(O)C2O)cc2c(c1OC)-c1ccc(OC)c(=O)cc1C(NC(C)=O)CC2 (centres undefined),> 100,> 100,> 100,> 100,> 100,> 100,> 100,> 100,> 100,–,–
CC1(C)C(=O)/C(=C/c2ccccc2)C(C)(C)C1(C)C,98.9,> 100,> 100,> 100,> 100,–,> 100,> 100,> 100,> 100,–
COc1cc2c(cc1O)C(Cc1ccc(OCc3ccccc3)c(OCc3ccccc3)c1)N(C(=O)NCCc1ccccc1)CC2 (centres undefined),> 100,> 100,72.9,> 100,> 100,–,> 100,> 100,> 100,> 100,–
COC(=O)CCC(C)[C@H]1CCC2C3CC[C@@H]4CC5(CC[C@]4(C)C3C[C@H](OC(C)=O)[C@@]21C)OOC1(CCCCC1)OO5 (some centres undefined),> 100,> 100,40.5,> 100,52.2,–,> 100,> 100,> 100,50,–
O=C(O)CCCc1ccc2c(c1)C(C(=O)O)CC2 (centres undefined),> 100,> 100,> 100,> 100,> 100,–,> 100,> 100,> 100,> 100,–
CC1(C)CCC[C@@]2(C)C1CC[C@@]1(CO)O[C@H](C3=CC(=O)OC3O)C[C@H]12 (some centres undefined),19.3,28.5,17.4,26.6,28.9,–,> 59.8,50.5,37.5,25.8,–
CC[C@]1(c2ccc3c(c2)OCO3)C=[N+]([O-])O[C@H](OC2CCCC2(c2ccccc2)c2ccccc2)[C@@H]1OC(C)=O (some centres undefined),5.38,> 62.6,4.78,> 22.3,5.73,–,> 100,3.2,> 28.3,10.2,–
O=C(O)C1CCC(=O)N1C(=O)COc1cc(Cl)c(Cl)cc1Cl (centres undefined),–,> 100,> 100,> 100,–,> 100,–,> 100,> 100,–,–
COc1cc2c(cc1OC)C1=C(C=O)c3ccc(OC)c(OC)c3C(O)N1CC2 (centres undefined),> 100,45.9,75.2,> 100,28.7,–,64.8,> 100,> 100,57.9,–
C[n+]1c2ccccc2n2c3ccccc3c(NCCCn3ccnc3)c(C#N)c21,> 27,> 33,2.18,4.09,4.71,–,24.5,17.4,18.7,> 19.6,–
CC(C)C(NCc1c2ccccc2[n+](C)c2ccccc12)C(=O)O (centres undefined),19.7,18,3.69,18,17,5.79,14.3,20.5,33.2,–,–
